| melting point | SMILES |
| --- | --- |
| 117 to 119 °C | COc1cccc([C@H]2O[C@H](CC(=O)Nc3cccc(CCCCC(=O)O)c3)C(=O)N(CC(C)(C)CO)c3ccc(Cl)cc32)c1OC [Example 135, 5-[3-[[[(3R,5S)-7-Chloro-5-(2,3-dimethoxyphenyl)-1-(3-hydroxy-2,2-dimethylpropyl)-2-oxo-1,2,3,5-tetrahydro-4,1-benzoxazepin-3-yl]acetyl]amino]phenyl]pentanoic acid] |
| 192 to 193 °C (dec.) | COc1cccc([C@H]2O[C@H](CC(=O)Nc3ccc(OCC(=O)O)cc3F)C(=O)N(CC(C)(C)CO)c3ccc(Cl)cc32)c1OC [Example 136] |
| 225 to 226 °C (dec.) | COc1ccc(C(C)(C)C(=O)O)cc1NC(=O)C[C@H]1O[C@H](c2cccc(OC)c2OC)c2cc(Cl)ccc2N(CC(C)(C)CO)C1=O [Example 137, 2-[3-[[2-[(3R,5S)-7-Chloro-5-(2,3-dimethoxyphenyl)-1-(3-hydroxy-2,2-dimethylpropyl)-2-oxo-1,2,3,5-tetrahydro-4,1-benzoxazepin-3-yl]acetyl]amino]-4-methoxyphenyl]-2,2-dimethylacetic acid] |
| 173 to 174 °C | COc1ccc(C(C)(C)CCC(=O)O)cc1NC(=O)C[C@H]1O[C@H](c2cccc(OC)c2OC)c2cc(Cl)ccc2N(CC(C)(C)CO)C1=O [Example 138, 4-[3-[[2-[(3R,5S)-7-Chloro-5-(2,3-dimethoxyphenyl)-1-(3-hydroxy-2,2-dimethylpropyl)-2-oxo-1,2,3,5-tetrahydro-4,1-benzoxazepin-3-yl]acetyl]amino]-4-methoxyphenyl]-4,4-dimethylbutanoic acid] |
| 136 to 138 °C | COc1ccc(CCCCC(=O)O)cc1NC(=O)C[C@H]1O[C@H](c2cccc(OC)c2OC)c2cc(Cl)ccc2N(CC(C)(C)CO)C1=O [Example 139, 5-[3-[[2-[(3R,5S)-7-Chloro-5-(2,3-dimethoxyphenyl)-1-(3-hydroxy-2,2-dimethylpropyl)-2-oxo-1,2,3,5-tetrahydro-4,1-benzoxazepin-3-yl]acetyl]amino]-4-methoxyphenyl]pentanoic acid] |
| 265 to 270 °C (dec.) | COc1cccc([C@H]2O[C@H](CC(=O)Nc3cccc(C(=O)O)n3)C(=O)N(CC(C)(C)CO)c3ccc(Cl)cc32)c1OC [Example 140, 6-[[[(3R,5S)-5-(2,3-Dimethoxyphenyl)-7-chloro-1-(3-hydroxy-2,2-dimethylpropyl)-2-oxo-1,2,3,5-tetrahydro-4,1-benzoxazepin-3-yl]acetyl]amino]-2-pyridinecarboxylic acid] |
| 241 to 242.2 °C | COc1cccc([C@H]2O[C@H](CC(=O)Nc3ncc(C(=O)O)s3)C(=O)N(CC(C)(C)CO)c3ccc(Cl)cc32)c1OC [Example 141, 2-[[[(3R,5S)-7-Chloro-5-(2,3-dimethoxyphenyl)-1-(3-hydroxy-2,2-dimethylpropyl)-2-oxo-1,2,3,5-tetrahydro-4,1-benzoxazepin-3-yl]acetyl]amino]-1,3-thiazole-5-carboxylic acid] |
| 277.3 to 277.9 °C | COc1cccc([C@H]2O[C@H](CC(=O)Nc3nc(C(=O)O)cs3)C(=O)N(CC(C)(C)CO)c3ccc(Cl)cc32)c1OC [Example 142, 2-[[[(3R,5S)-7-Chloro-5-(2,3-dimethoxyphenyl)-1-(3-hydroxy-2,2-dimethylpropyl)-2-oxo-1,2,3,5-tetrahydro-4,1-benzoxazepin-3-yl]acetyl]amino]-1,3-thiazole-4-carboxylic acid] |
| 239 to 241 °C | COc1cccc([C@H]2O[C@H](CC(=O)Nc3ncc(CC(=O)O)s3)C(=O)N(CC(C)(C)CO)c3ccc(Cl)cc32)c1OC [Example 143, [2-[[[(3R,5S)-7-Chloro-5-(2,3-dimethoxyphenyl)-1-(3-hydroxy-2,2-dimethylpropyl)-2-oxo-1,2,3,5-tetrahydro-4,1-benzoxazepin-3-yl]acetyl]amino]-1,3-thiazol-5-yl]acetic acid] |
| 203 to 205 °C | COc1cccc([C@H]2O[C@H](CC(=O)Nc3ncc(CCC(=O)O)s3)C(=O)N(CC(C)(C)CO)c3ccc(Cl)cc32)c1OC [Example 144, 3-[2-[[[(3R,5S)-7-Chloro-5-(2,3-dimethoxyphenyl)-1-(3-hydroxy-2,2-dimethylpropyl)-2-oxo-1,2,3,5-tetrahydro-4,1-benzoxazepin-3-yl]acetyl]amino]-1,3-thiazol-5-yl]propionic Acid] |
| 251 to 252 °C | COc1cccc([C@H]2O[C@H](CC(=O)Nc3nc(C)c(C(=O)O)s3)C(=O)N(CC(C)(C)CO)c3ccc(Cl)cc32)c1OC [Example 145, 2-[[[(3R,5S)-7-Chloro-5-(2,3-dimethoxyphenyl)-1-(3-hydroxy-2,2-dimethylpropyl)-2-oxo-1,2,3,5-tetrahydro-4,1-benzoxazepin-3-yl]acetyl]amino]-4-methyl-1,3-thiazole-5-carboxylic acid] |
| 187.9 to 188.9 °C | COc1cccc([C@H]2O[C@H](CC(=O)Nc3ccc4[nH]c(SCC(=O)O)nc4c3)C(=O)N(CC(C)(C)CO)c3ccc(Cl)cc32)c1OC [Example 148, 2-[[5-[[[(3R,5S)-7-Chloro-5-(2,3-dimethoxyphenyl)-1-(3-hydroxy-2,2-dimethylpropyl)-2-oxo-1,2,3,5-tetrahydro-4,1-benzoxazepin-3-yl]acetyl]amino]-1H-benzimidazol-2-yl]sulfanyl]acetic acid] |
| 175.4 to 175.5 °C | COc1cccc([C@H]2O[C@H](CC(=O)Nc3cc(OC)c4oc(C(=O)O)cc4c3)C(=O)N(CC(C)(C)CO)c3ccc(Cl)cc32)c1OC [Example 149, 5-[[[(3R,5S)-5-(2,3-dimethoxyphenyl)-7-chloro-1-(3-hydroxy-2,2-dimethylpropyl)-2-oxo-1,2,3,5-tetrahydro-4,1-benzoxazepin-3-yl]acetyl]amino]-7-methoxy-1-benzofran-2-carboxylic acid] |
| 181 to 181.5 °C | CCOc1cc(NC(=O)C[C@H]2O[C@H](c3cccc(OC)c3OC)c3cc(Cl)ccc3N(CC(C)(C)CO)C2=O)cc2cc(C(=O)O)oc12 [Example 150, 5-[[[(3R,5S)-7-chloro-5-(2,3-dimethoxyphenyl)-1-(3-hydroxy-2,2-dimethylpropyl)-2-oxo-1,2,3,5-tetrahydro-4,1-benzoxazepin-3-yl]acetyl]amino]-7-ethoxy-1-benzofuran-2-carboxylic acid] |
| 188.6 to 189.7 °C | COc1cccc([C@H]2O[C@H](CC(=O)Nc3cc(OC(C)C)c4oc(C(=O)O)cc4c3)C(=O)N(CC(C)(C)CO)c3ccc(Cl)cc32)c1OC [Example 152, 5-[[[(3R,5S)-7-Chloro-5-(2,3-dimethoxyphenyl)-1-(3-hydroxy-2,2-dimethylpropyl)-2-oxo-1,2,3,5-tetrahydro-4,1-benzoxazepin-3-yl]acetyl]amino]-7-[(1-methylethyl)oxy]-1-benzofuran-2-carboxylic acid] |
| 175.4 to 176.3 °C | COc1cccc([C@H]2O[C@H](CC(=O)Nc3ccc4oc(C(=O)O)c(OC)c4c3)C(=O)N(CC(C)(C)CO)c3ccc(Cl)cc32)c1OC [Example 153, 5-[[[(3R,5S)-7-chloro-5-(2,3-dimethoxyphenyl)-7-chloro-1-(3-hydroxy-2,2-dimethylpropyl)-2-oxo-1,2,3,5-tetrahydro-4,1-benzoxazepin-3-yl]acetyl]amino]-3-methoxy-1-benzofuran-2-carboxylic acid] |
| 193 to 195.5 °C | COc1cccc([C@H]2O[C@H](CC(=O)Nc3ccc4oc(C(=O)O)c(OCC(=O)O)c4c3)C(=O)N(CC(C)(C)CO)c3ccc(Cl)cc32)c1OC [Example 155, 5-[[[(3R,5S)-7-chloro-5-(2,3-dimethoxyphenyl)-1-(3-hydroxy-2,2-dimethylpropyl)-2-oxo-1,2,3,5-tetrahydro-4,1-benzoxazepin-3-yl]acetyl]amino]-3-[(carboxymethyl)oxy]-1-benzofuran-2-carboxylic acid] |
| 174.2 to 174.9 °C | COc1cccc([C@H]2O[C@H](CC(=O)Nc3ccc4oc(C(=O)O)c(OC(C)C)c4c3)C(=O)N(CC(C)(C)CO)c3ccc(Cl)cc32)c1OC [Example 156, 5-[[[(3R,5S)-7-chloro-5-(2,3-dimethoxyphenyl)-1-(3-hydroxy-2,2-dimethylpropyl)-2-oxo-1,2,3,5-tetrahydro-4,1-benzoxazepin-3-yl]acetyl]amino]-3-[(1-methylethyl)oxy]-1-benzofuran-2-carboxylic acid] |
| 200.5 to 200.6 °C | COc1cccc([C@H]2O[C@H](CC(=O)Nc3ccc4[nH]c(C(=O)O)cc4c3)C(=O)N(CC(C)(C)CO)c3ccc(Cl)cc32)c1OC [Example 157] |
| 207 to 209 °C | COc1cccc([C@H]2O[C@H](CC(=O)Nc3ccc4oc(CCC(=O)O)cc4c3)C(=O)N(CC(C)(C)CO)c3ccc(Cl)cc32)c1OC [Example 159, 3-[5-[[[(3R,5S)-7-Chloro-5-(2,3-dimethoxyphenyl)-1-(3-hydroxy-2,2-dimethylpropyl)-2-oxo-1,2,3,5-tetrahydro-4,1-benzoxazepin-3-yl]acetyl]amino]-1-benzofuran-2-yl]propanoic acid] |
| 175 to 176.5 °C | COc1cccc([C@H]2O[C@H](CC(=O)Nc3ccc4oc(C(=O)O)c(C)c4c3)C(=O)N(CC(C)(C)CO)c3ccc(Cl)cc32)c1OC [Example 160, 5-[[[(3R,5S)-7-Chloro-5-(2,3-dimethoxyphenyl)-1-(3-hydroxy-2,2-dimethylpropyl)-2-oxo-1,2,3,5-tetrahydro-4,1-benzoxazepin-3-yl]acetyl]amino]-3-methyl-1-benzofuran-2-carboxylic acid] |
| 180.7 to 182 °C | COc1cccc([C@H]2O[C@H](CC(=O)Nc3cc(C)c4oc(C(=O)O)cc4c3)C(=O)N(CC(C)(C)CO)c3ccc(Cl)cc32)c1OC [Example 161, 5-[[[(3R,5S)-7-Chloro-5-(2,3-dimethoxyphenyl)-1-(3-hydroxy-2,2-dimethylpropyl)-2-oxo-1,2,3,5-tetrahydro-4,1-benzoxazepin-3-yl]acetyl]amino]-7-methyl-1-benzofuran-2-carboxylic acid] |
| 188 to 189 °C | CCc1cc(NC(=O)C[C@H]2O[C@H](c3cccc(OC)c3OC)c3cc(Cl)ccc3N(CC(C)(C)CO)C2=O)cc2cc(C(=O)O)oc12 [Example 162, 5-[[2-[(3R,5S)-7-Chloro-5-(2,3-dimethoxyphenyl)-1-(3-hydroxy-2,2-dimethylpropyl)-2-oxo-1,2,3,5-tetrahydro-4,1-benzoxazepin-3-yl]acetyl]amino]-7-ethyl-1-benzofuran-2-carboxylic acid] |
